Reference: patent publication US11414454B2, “Compositions, methods, and systems for affinity-based protein identification and purification” (Auctus Biologies, Inc., priority 2017, dated 2022)
No end group written: not given here.

Key:
[1] = molecular target: RPtag (large); experiment: Fluorescence anisotropy Kd of rhodamine labeled RPtag (small) peptides for RPtag (large); format: binding, Thermoanaerobacter tengcongensis
Description: (§1) 50 nM of RP-Tag Small (see Sequence 3, below) with an N-terminal Rhodamine B label was incubated with increasing concentrations of either RP-Tag Large (see Sequence 2) or Bovine Serum Albumin (BSA) in 50 mM Tris pH 8.0, 150 mM NaCl, 10 mM 2-mercaptoethanol, and 0.005% Tween 20 for 5 min in black 96-well plates at room temperature.
(§2) Anisotropy was then measured, and a Kd calculated by fitting the data to the equation f=y0+(ymax−y0)*(Ptot+x+Kd−sqrt((Ptot+x+Kd)^2−4*Ptot*x))/(2*Ptot), where y0 is the baseline anisotropy, ymax is the maximum anisotropy, Ptot is the fixed concentration of labeled peptide used, x is the variable concentration of protein used, and Kd is the measured Kd.
(§3) The indicated concentrations of RPtag (large) and an anti-His tag antibody (4E3D10H2/E3 purchased from ThermoFisher Scientific) were incubated with 1 nM rhodamine labeled native RPtag (small) peptide and 6×His peptide (Rhodamine-GHHHHHH), respectively, and fluorescence anisotropy measured. BSA incubated with native rhodamine labeled RPtag(small) is included as a control for non-specific binding. Kd's were calculated according to the equation f=y0+(ymax−y0)*(Ptot+x+Kd−sqrt((Ptot+x+Kd)^2−4*Ptot*x))/(2*Ptot), where y0 is the baseline anisotropy, ymax is the maximum anisotropy, Ptot is the fixed concentration of labeled peptide used, x is the variable concentration of protein used, and Kd is the measured Kd. We measured a Kd of 0.2±0.1 nM for RPtag(large) binding RPtag(small), and a Kd of 6±1 nM for the antibody/6×His tag pair.
Regarding the studies shown in FIG. 14, increasing concentrations of unlabeled RPtag large with the indicated mutations (native, f137d, and f137e) were incubated for 1 h with 1 nM rhodamine labeled RPtag small peptide and the fluorescence anisotropy was measured. Resultant curves were fit with the equation f=y0+(ymax−y0)*(Ptot+x+Kd−sqrt((Ptot+x+Kd)^2−4*Ptot*x))/(2*Ptot), where y0 is the baseline anisotropy, ymax is the maximum anisotropy, Ptot is the fixed concentration of labeled peptide used, x is the variable concentration of protein used, and Kd is the measured Kd. Data are presented here as Ka=1/Kd. Log transformed Ka's were then compared by one-way ANOVA with Holm-Sidak post hoc correction. ***p<0.001, **p<0.01, *p<0.05. data are mean±SEM (n=3-4). Buffer was 50 mM Tris pH 8.0, 0.005% tween20. Proteins were expressed and purified by single step NiNTA chromatography as before. Peptides were synthesized solid-state and handled as previous.

[2] = test system: immobilized RP-Tag Large; experiment: Column elution trials of rhodamine labeled RP-Tag Small bound to immobilized RP-Tag Large; format: binding, Thermoanaerobacter tengcongensis
Description: One embodiment of the disclosed RP-Tag system was tested by creating a column with one component bound to a solid, agarose-based matrix. In these experiments, a SulfoLink™ Immobilization kit (ThermoFisher scientific) was used to affix RP-Tag Large to a solid support, according to the manufacturer's instructions. For these experiments, an N-terminal linker was added to RP-Large that included a Cys residue. One of skill in the art is able to select various techniques and chemistries to aid in affixing either RP-Tag protein to a solid support matrix.
The amount of protein linked to the column was determined using a BCA assay with Bovine Serum Albumin (BSA) as a standard. […] The linked resin was poured into an included column and the column capped with a frit included in the kit (see photos in FIG. 2). The column was equilibrated with several volumes of 50 mM Tris pH 8.5, 150 mM NaCl, 5 mM EDTA.
25 mL of 1 μM Rhodamine-6B labeled RP-Tag Small, in 50 mM Tris pH 8.5, 150 mM NaCl, 5 mM EDTA, was flowed over the column of immobilized RP-Tag Large protein. RP-Tag Small bound the column and formed a visibly bright red band (rhodamine B) at the top of the resin (see FIG. 2).
Briefly, after binding, the RP-Tag Small red band was not observed to appreciably diffuse and/or elute after washing the column (and band) with various solutions. For these tests, 10 mL (5 column volumes) of various buffers were added to the column. The tested buffers ranged from about pH 1.5-13.7 and about 1 M sodium hydroxide.
Table 1. Summary of elution trial data. The test system used was a column equilibrated with 50 mM Tris pH 8.5, 150 mM NaCl, 5 mM EDTA, and applied 25 mL 1 μM Rhodamine-6B labeled RP-small peptide in the same buffer. In cases where D-ribose was used, the indicated concentration was also included in the equilibration and loading buffer.

[3] = molecular target: Bovine Serum Albumin (BSA) (Bos taurus, UniProt P02769); format: binding; conditions: fluorescence anisotropy, rhodamine labeled peptide; up to 10 μM BSA
Bovine Serum Albumin (BSA), sequence (P02769 25-607): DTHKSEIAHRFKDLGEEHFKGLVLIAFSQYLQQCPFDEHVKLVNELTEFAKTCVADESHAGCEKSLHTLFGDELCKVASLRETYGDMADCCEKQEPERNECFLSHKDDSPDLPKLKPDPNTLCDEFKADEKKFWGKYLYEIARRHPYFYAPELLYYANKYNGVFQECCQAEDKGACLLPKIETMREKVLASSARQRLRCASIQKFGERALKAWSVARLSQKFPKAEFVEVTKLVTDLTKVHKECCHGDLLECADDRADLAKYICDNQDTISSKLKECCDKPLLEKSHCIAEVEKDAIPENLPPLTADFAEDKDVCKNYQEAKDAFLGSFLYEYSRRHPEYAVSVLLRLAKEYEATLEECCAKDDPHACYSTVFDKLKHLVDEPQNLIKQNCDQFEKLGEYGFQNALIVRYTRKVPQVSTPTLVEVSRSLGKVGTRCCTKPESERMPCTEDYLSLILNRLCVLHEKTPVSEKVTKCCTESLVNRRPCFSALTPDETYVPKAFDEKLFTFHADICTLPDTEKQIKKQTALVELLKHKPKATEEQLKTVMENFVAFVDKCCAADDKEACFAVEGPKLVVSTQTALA
Description: as §1, §2, §3

[4] = test system: F137D RPtag(large); experiment: Compensatory mutation binding study by fluorescence anisotropy; set-up: species or system Thermoanaerobacter tengcongensis; conditions: 1 nM rhodamine labeled peptide
F137D RPtag(large), sequence (as listed by the source, stated change not applied): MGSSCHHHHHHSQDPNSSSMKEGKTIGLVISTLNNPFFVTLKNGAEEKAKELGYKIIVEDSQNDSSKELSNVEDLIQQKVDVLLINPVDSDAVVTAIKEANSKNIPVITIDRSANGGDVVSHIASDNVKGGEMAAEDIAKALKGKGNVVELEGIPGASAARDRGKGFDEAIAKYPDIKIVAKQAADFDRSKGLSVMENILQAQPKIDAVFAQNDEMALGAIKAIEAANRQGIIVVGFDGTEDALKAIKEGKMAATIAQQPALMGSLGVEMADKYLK
From the text: The possibility of creating compensatory mutations in the two sequences was investigated by modifying position 14 of RPtag(small) and position 137 of RPtag(large). First, a positively charged lysine (K) was introduced at position L14 of RPtag(small) (FIG. 14). […] Next, position F137 of RPtag(large) was mutated to aspartic acid (D), which is a negatively charged residue under physiologic conditions. This substitution was introduced into RPtag(large) to balance the charge with the L14K substitution, and help restore interaction between the two residues. […] In other embodiments, different compensatory mutations may be introduced at F137 and L14, as well as other positions in the two RPtag proteins.
Regarding the studies shown in FIG. 14, increasing concentrations of unlabeled RPtag large with the indicated mutations (native, f137d, and f137e) were incubated for 1 h with 1 nM rhodamine labeled RPtag small peptide and the fluorescence anisotropy was measured. Resultant curves were fit with the equation f=y0+(ymax−y0)*(Ptot+x+Kd−sqrt((Ptot+x+Kd)^2−4*Ptot*x))/(2*Ptot), where y0 is the baseline anisotropy, ymax is the maximum anisotropy, Ptot is the fixed concentration of labeled peptide used, x is the variable concentration of protein used, and Kd is the measured Kd. Data are presented here as Ka=1/Kd. […]

[5] = test system: RPtag (large) resin; experiment: Affinity-based precipitation/pull-down with RPtag (large) resin; format: binding, Thermoanaerobacter tengcongensis; conditions: negative control peptide
RPtag (large) resin, sequence (as listed by the source): as the sequence (as listed by the source, stated change not applied) above, with D137F counted along it
Description: The disclosed proteins and peptides were used in precipitation/pull-down assays. Specifically, rhodamine was tagged with the RPtag(small) Nd8Cd4 peptide and RPtag(large) was immobilized on a resin, as described above.
Briefly, 100 μL 1000 nM rhodamine labeled RPtag(small) peptide was incubated with 2.5 uL wet settled RPtag (large) resin generated as (as described above) in phosphate buffered saline (PBS; Gibco)+1% BSA+0.005% Tween 20 at 4° C. for 60 min with continuous orbital shaking. Samples were then washed 3× with 500 μL of the same buffer with no peptide to remove unbound peptide. Bound RPtag(small) peptides were then eluted with 100 μL 100 mM glycine pH 1.5+0.005% Tween20, and the pH raised by adding 1 μL 1 M borate pH 10.0. The amount eluted was calculated from the blank subtracted fluorescence of the elution versus the load. After each elution, resin was washed once with 500 μL 6M GdnHCl and once with 500 μL phosphate buffered saline (Gibco)+1% BSA+0.005% Tween 20, before repeating the assay.
Sequential precipitation/pulldown trials were performed with the rhodamine labelled RPtag(small) Nd8Cd4 peptide, and the RPtag(large)-resin. After binding and pull-down, the rhodamine-peptide was eluted in 100 mM glycine pH 1.5, the column was washed with water and 6 M guanidine hydrochloride, and then re-equilibrated with buffer (50 mM Tris pH 8.0, 10 mM EDTA). […]

Sequence: GEKIPNFIPAELKLITKENVQ [RP-Tag Small]
- Kd ([1]; 50 nM N-terminal Rhodamine B RP-Tag Small, 50 mM Tris pH 8.0, 150 mM NaCl, 10 mM 2-mercaptoethanol, 0.005% Tween 20): 8 nM
- Result of elution trial (bound rhodamine band) ([2]; 0.1M Tris pH 7.5 + 100 μM unlabeled RP tag peptide): Partial band elution, slight
- Result of elution trial (bound rhodamine band) ([2]; 0.1M Tris pH 7.5 + 6M guanidine hydrochloride): Complete band elution
- Result of elution trial (bound rhodamine band) ([2]; 0.1M Tris pH 7.5 + 6M guanidine hydrochloride + 10 mM D-ribose): partial band elution,
- Result of elution trial (bound rhodamine band) ([2]; 0.1M Tris pH 7.5 + 6M guanidine hydrochloride + 100 mM D-ribose): no band elution, significant
- Result of elution trial (bound rhodamine band) ([2]; 0.1M Tris pH 7.5 + 6M guanidine hydrochloride + 1M D-ribose): No band elution, minor
- Result of elution trial (bound rhodamine band) ([2]; 5 column volumes 0.05M sodium acetate pH 4.6): No band diffusion/elution
- Result of elution trial (bound rhodamine band) ([2]; 5 column volumes 0.1M Tris pH 7.5): No band diffusion/elution
- Result of elution trial (bound rhodamine band) ([2]; 5 column volumes 0.1M Tris pH 8.0): No band diffusion/elution
- Result of elution trial (bound rhodamine band) ([2]; 5 column volumes 0.1M Tris pH 8.5): No band diffusion/elution
- Result of elution trial (bound rhodamine band) ([2]; 5 column volumes 0.1M glycine pH 1.5): Complete band elution
- Result of elution trial (bound rhodamine band) ([2]; 5 column volumes 0.1M glycine pH 2.5): No band diffusion/elution
- Result of elution trial (bound rhodamine band) ([2]; 5 column volumes 0.1M glycine pH 3.5): No band diffusion/elution
- Result of elution trial (bound rhodamine band) ([2]; 5 column volumes 0.1M sodium phosphate pH 12.0): No band diffusion/elution
- Result of elution trial (bound rhodamine band) ([2]; 5 column volumes 0.1M sodium phosphate pH 13.0): No band diffusion/elution
- Result of elution trial (bound rhodamine band) ([2]; 5 column volumes 0.1M sodium phosphate pH 13.7): No band diffusion/elution
- Result of elution trial (bound rhodamine band) ([2]; 5 column volumes 1M sodium hydroxide): No band diffusion/elution
- stability of bound band on column ([2]; room temperature): > 1 week
- binding to BSA [3]: no binding

Sequence: GEKIPNFIPAELKKITKENVQ [l14k]
- binding to native RPtag(large) ([1]; 1 nM rhodamine labeled peptide, 50 mM Tris pH 8.0, 0.005% tween20): significantly impaired binding
- binding affinity for F137D RPtag(large) [4]: substantially restored the binding affinity

Sequence: GEKIPNFIP [Cd12]
- Kd ([1]; N-terminal rhodamine tagged peptide, unlabeled RPtag (large), 50 mM Tris pH 8.0, 0.005% Tween 20, mean ± SE): > 100000 nM
- binding in pulldown [5]: no binding
